Patent US20070265208A1, “Association of calpain inhibitors and reactive oxygen species trapping agents” (priority 2000, published 2007)
“And” between values parts separate entries of the source, which are not always exact repeats. Identical values can stand only once. Non-standard residues stand in square brackets, D forms with d. Residues, ends and D or L forms follow the SMILES beside them. ξ: configuration not given here. *: point of attachment. ξF = NC(Cc1ccccc1)C(=O)O; Cbz = O=C(OCc1ccccc1)*

Assays:
human calpain I = molecular target: T1, human calpain I (Homo sapiens, UniProt P07384); test: Effects on human calpain I (acellular, Suc-Leu-Tyr-AMC fluorescence); format: biochemical; conditions: enzyme purified from human erythrocytes; 1 h at 25°C; read-out: Inhibition human calpain I, acellular [IC50 (nM)]
T1 construct: enzyme purified from human erythrocytes; purchased Calbiochem 208713; host or cells: human erythrocytes (native tissue source)
T1 sequence (P07384 1-714): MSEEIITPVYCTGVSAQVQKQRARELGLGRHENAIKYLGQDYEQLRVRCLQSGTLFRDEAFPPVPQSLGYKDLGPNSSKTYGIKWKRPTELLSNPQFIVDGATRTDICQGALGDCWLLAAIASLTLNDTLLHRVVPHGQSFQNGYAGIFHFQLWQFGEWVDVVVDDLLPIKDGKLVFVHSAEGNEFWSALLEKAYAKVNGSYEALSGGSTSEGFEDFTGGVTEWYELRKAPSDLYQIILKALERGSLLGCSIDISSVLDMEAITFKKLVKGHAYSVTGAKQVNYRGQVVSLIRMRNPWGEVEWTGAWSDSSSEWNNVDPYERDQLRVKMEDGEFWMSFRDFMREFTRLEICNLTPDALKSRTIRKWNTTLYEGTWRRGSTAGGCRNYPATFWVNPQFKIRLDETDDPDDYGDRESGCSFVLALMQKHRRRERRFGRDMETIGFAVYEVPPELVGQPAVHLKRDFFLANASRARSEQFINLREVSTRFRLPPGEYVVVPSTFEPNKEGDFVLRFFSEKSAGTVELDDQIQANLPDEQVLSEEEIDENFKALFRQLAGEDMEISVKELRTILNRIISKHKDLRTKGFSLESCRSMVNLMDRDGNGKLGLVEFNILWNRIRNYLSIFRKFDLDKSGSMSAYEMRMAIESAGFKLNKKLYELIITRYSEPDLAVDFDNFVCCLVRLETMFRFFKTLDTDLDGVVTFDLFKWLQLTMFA
T1 sequence (P04632 1-268 partner): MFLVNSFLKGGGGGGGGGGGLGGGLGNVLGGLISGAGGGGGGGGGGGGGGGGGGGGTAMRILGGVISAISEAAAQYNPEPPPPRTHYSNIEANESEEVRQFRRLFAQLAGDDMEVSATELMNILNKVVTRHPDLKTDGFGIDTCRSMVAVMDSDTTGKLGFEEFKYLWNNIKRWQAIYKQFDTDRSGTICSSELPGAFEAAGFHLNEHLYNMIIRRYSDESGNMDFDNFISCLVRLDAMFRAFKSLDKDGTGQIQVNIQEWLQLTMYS
Protocol: The test consists of measuring the activity of the enzyme (enzyme purified from human erythrocytes) which is incubated in a buffer in the presence of a peptide substrate coupled with a fluorochrome (amino-methylcourmarin, AMC) and calcium. The enzyme activated by the calcium, proteolyses the substrate and releases the AMC fragment. The AMC released fluoresces at 460 nm under excitation at 380 nm. The activity of the enzyme is therefore proportional to the quantity of fluorescence i.e. of free AMC fragment. The fluorescence (380/460 nm) is measured using a multi-well fluorimeter (Victor 2, Wallac).
Assay is carried out in 96-well microplates with transparent bottoms and black walls in which 10 μl per well of substance to be tested in DMSO 10%, 45 μl of reaction mixture containing the human calpain I at 2.2 U/ml (Calbiochem, ref: 208713), the Suc Leu Tyr-AMC substrate (Bachem, ref: I-1355) at 1.1 mM in a buffer (Tris-HCl 110 mM; NaCl 110 mM; EDTA 2.2 mM; EGTA 2.2 mM; mercaptoethanol 1.1 mM) are distributed. The reaction is initiated by adding 45 μl of CaCl2 22mM. To determine the background noise, control wells without calcium are added to the plate (10 μL DMSO 10%+45 μL of buffer with the enzyme and the susbtrate +45 μL H2O). In order to determine the total activity of the enzyme control wells containing no product are added to the plate (10 μL DMSO 10%+45 μL of buffer with the enzyme and the substrate +45 μL of CaCl2 22 mM ). Each concentration of the products (0.1 nM to 10 μM) is tested in duplicate. The plates are shaken and incubation takes place for one hour at 25° C. in darkness. The fluorescence is read at 380/460 nm using the Victor.

[1] = test system: calpain activity in rat glial cells (C6); test: In situ calpain activity in rat glial cells C6 stimulated by maitotoxin; format: cell-based; conditions: read-out: Inhibition human calpain I, in situ (C6) [IC50 (nM)]; n = 3; maitotoxin 1 nM; 1 h 30 min
Protocol: Human neuroblastomas SHSY5Y and rat glial cells C6 are seeded at a rate of 50,000 and 25,000 cells respectively per well on 96-well plates in DMEM 10% FBS. The next day, the cells which have adhered are washed 3 times in DMEM medium without serum and 40 mM Hepes. 100 microlitres of product B is placed in the wells. After incubation for 1 hour at 37° C. under an atmosphere of 5% CO2, 10 μl containing the fluorescent substrate of calpain (Suc-Leu-Tyr-AMC) and maitotoxin (Sigma, ref: M-9159), in order to obtain a final concentration in the well of 100 μM and of 1 nM respectively are added.
In order to determine the total activity of the cell enzyme, wells containing no product are added to the plate (100 μL DMSO 100th plus 10 μl of MTX and substrate). The background noise is determined by adding control wells with no MTX. Each concentration of the products (0.3 μM to 200 μM for the SHSY5Y's and 0.01 μM to 100 μM for the C6's) is tested in triplicate. The plates are shaken, the fluorescence is read at 380/460 nm using the Victor at T zero. Incubation takes place for four hours for the SHSY5Y and 1 hour 30 minutes for the C6 cells at 30° C. in darkness.

rat glial cells C6 = test: Protection from necrosis induced by maitotoxin, C6 (wst-1 viability); format: cell-based
Protocol: Human neuroblastomas SHSY5Y and rat glial cells C6 are seeded at 25 000 cells per well in 96-well plates in DMEM 10% FBS for 24 hours. The L6 rat myoblasts are seeded at 1000 cells per well in DMEM 10% FBS on 96-well microplates coated beforehand with gelatin 0.5% PBS. After culture for 3 days the medium is removed and replaced with a differentiation medium (DMEM+10 μg/ml of insulin+100 μg/ml of transferrin). 50 μl of product A plus 50 μl of solvent or 50 μl of product B are placed in the wells. After incubation for 1 hour at 37° C. under an atmosphere of 5% CO2, 10 μl of maitotoxin is added in order to obtain a final concentration of 0.1 nM to 1 nM (according to the cell type). After incubation for 3 hours at 37° C. under an atmosphere of 5% CO2, the cell viability is determined by adding 10 μl of tetrazolium salts (wst-1, Roche, ref: 1644807). The tetrazolium salts are cleaved into formazan molecules by mitochondrial dehydrogenases. The quantity of formazan formed is directly correlated to the number of metabolically active cells in the culture. Measurement of the absorbance of the formazan is carried out using a multiwell photometer at a wavelength of 420 nm against a reference wavelength of 620 nm.
The theoretical effect was obtained by multiplying the percentage of dead cells in the presence of product A by the percentage of dead cells in the presence of product B (Table 3). The percentage protection against cell death induced by MTX being the percentage of cells kept alive in the presence of the product or products.
In the light of the previous results, the combination of Example 1 with product A and product B at a rate of 100 μM of each of the products is carried out on human neuroblastomas (SHSY5Y; (Table 5A) and on glial cells with 25 μM of product A and 50 μM of product B (C6; Table 5B) on a larger number of cases.

[2] = test system: lipidic peroxidation of rat cerebral cortex homogenate; test: In vitro lipidic peroxidation (Fenton reaction, MDA) in rat cerebral cortex membranes; format: biochemical; conditions: iron/ascorbate, read-out: Inhibition of lipidic peroxidation [IC50 (μM)]
Protocol: The test consists of inducing lipidic peroxidation by Fenton reactions in the presence of iron and ascorbate. The degree of lipidic peroxidation is determined by the concentration of malonaldehyde (MDA). The MDA produced by the lipidic peroxidation of unsaturated fatty acids is a good indicator of lipidic peroxidation (Esterbauer et al, 1990; Meth. Enzymol. 186: 407421). For this colorimetric test, the condensation of a molecule of MDA with two molecules of chromogenic reagent R (N-methyl-2-phenylindole) produces a stable chromophore the maximum absorbance wavelength of which is equal to […].
The membranes are prepared from the cortexes of male Sprague Dawley rats weighing 200 to 250 g. The animals are sacrificed by decapitation and the brains are immediately removed and rinsed in cold Tris HCl 20 mM pH 7.4. The cortexes, after dissection and removal of the white matter, are then ground with the Thomas potter, in Tris HCl buffer 20 mM pH 7.4 at 4° C. The homogenate obtained is centrifuged at low speed in order to eliminate the large debris (515 g for 15 minutes at 4° C.). The supernatant is then distributed into polycarbonate centrifugation tubes and centrifuged at 51500 g for 25 min at 4° C. The membrane pellets are kept at −80° C.
On the day of the experiment, the frozen membranes are resuspended at a concentration of 0.5 equivalent grams of cortex per 5 ml of Tris HCl buffer 20 mM pH 7.4 and homogeneized using a combitips. In 96-well “deep-well” 1 ml polypropylene plates with a conical base, 5 μl per well of the product to be tested or of solvent is mixed with 40 μl of rat cerebral cortex homogenate by centrifugation (800 rpm). The plates are covered with a self-adhesive aluminium sheet and incubated at 37° C. for 15 minutes under agitation. […]
The membranes and the supernatants are separated by filtration under vacuum on a 96-well plate with a multiscreen filtering base NA (Millipore, ref: MANANLY 50). The absorbance of the supernatants recovered in the 96-well plates is read using a photometer.

[3] = single product at 100 μM, n = 1

CC(C)C[C@H](NC(=O)OCc1ccccc1)C(=O)NC(C=O)Cc1ccccc1 (stereo partly drawn) [EXAMPLE 2 B, benzyl (1S)-1-{[(1-benzyl-2-oxoethyl)amino]carbonyl)-3-methylbutylcarbamate] (Cbz-Leu-[ξF]-aldehyde)
IC50 (human calpain I): 8 nM
IC50 [1]: 2200 ± 290 nM
Protection from necrosis induced by MTX on C6 (rat glial cells C6; single product at 50 μM, n = 3 for Example 2, else n = 1): 12.05 ± 2.82%
Protection from necrosis induced by MTX on C6 (rat glial cells C6; single product at 50 μM, n = 3 for Example 2, else n = 1, listed as Z-Leu-Phe-H): inactive

Oc1ccc(Nc2ccccc2)cc1 [EXAMPLE 5 A, 4-hydroxydiphenylamine]
IC50 [2]: 0.093 µM
Protection from necrosis induced by MTX on C6 (rat glial cells C6; [3]): 17.90%
Protection from necrosis induced by MTX on C6 (rat glial cells C6; single product at 100 μM, n = 1, listed as EXAMPLE 6 A): 9.43%

O=C(O)C(S)=Cc1ccc(I)cc1 [EXAMPLE 4 B, 3-(4-iodophenyl)-2-mercapto-2-propenoic acid]
IC50 (human calpain I): 5140 nM
Protection from necrosis induced by MTX on C6 (rat glial cells C6; single product at 25 μM): 0.69%
Protection from necrosis induced by MTX on C6 (rat glial cells C6; [3]): 0.36% and 2.75%

CC(=O)N[C@@H](CC(C)C)C(=O)N[C@@H](CC(C)C)C(=O)N[C@H](C=O)CCCNC(=N)N [LEUPEPTIN, leupeptin]
IC50 (human calpain I): 73 nM
